Data reported in patent US9789114B2, “Compounds as HIF-1α inhibitors and manufacturing process thereof” (DONGGUK UNIVERSITY INDUSTRY-ACADEMIC COOPERATION FOUNDATION, priority 2011, dated 2017).

Each compound was assayed on HIF-1α-mediated HRE transcriptional activity (assay: Assay for inhibition of HIF-1α-mediated transcriptional activity (HRE reporter assay)). Settings: HCT116 cells, 12 hours under hypoxia (1% O2).
Type: cell-based, human
Method: <Experiment 1> Assay for Inhibition of HIF-1α-Mediated Transcriptional Activity (HRE Reporter Assay)
The compounds can be developed as anti-cancer drugs, because the compounds inhibiting HIF-1α-mediated HRE transcriptional activity induced by hypoxia can suppress the growth and metastasis of cancer.
Inhibitory effects of the compounds according to the present invention, from Formula I-1 to I-42, on HIF-1α-mediated transcriptional activity were evaluated using this assay. pGL3-HRE-luciferase vector was constructed as follows. Six copies of HRE (Hypoxia Responsive Element, 5′-ACGTG-3′) from human VEGF genes were inserted into the multi-cloning site of a pGL3-basic vector (Promega). A luciferase gene was used as a reporter gene.
In detail, HCT116(ATCC #CCL-247) human colon cancer cells were seeded in 48-well cell culture plates. The cells were co-transfected with 25 ng of pGL3-HRE-luciferase and 2.5 ng of Renila control vectors using Polyfect reagent next day. After 24 hours of incubation, the cells were incubated for an additional 4 hours with replaced cell culture media. The cells were treated with various concentrations (0, 1, 3, 5, 10, and 20 μM) of the above compounds according to the present invention and incubated for 12 hours under hypoxia (1% O2, 94% N2, and 5% CO2). The luciferase assay was performed using a dual-luciferase reporter assay system (Promega). After cell lysate preparation with RIPA buffer, induced luciferase activity under hypoxic conditions was determined to examine inhibitory effects of the compounds according to the present invention, from Formula I-1 to I-42, on HIF-1α-mediated transcriptional activity.
In the case of `CN1CCN(C(=O)COc2ccc(C34CC5CC(CC(C5)C3)C4)cc2)CC1.Cl` [Compound I-4, 4-(2-(4-(Adamantan-1-yl)phenoxy)acetyl)-1-methylpiperazin-1-ium chloride], the “Inhibitory activity against HIF-1α (10 μM)” value was “A (A(76˜100%))”.

Same assay, conditions: Homo sapiens, HCT-116, HCT116 cells, 12 hours under hypoxia (1% O2), read-out: Inhibitory activity against HIF-1α (10 μM)
`CN(C)C(=O)COc1ccc(C23CC4CC(CC(C4)C2)C3)cc1` [Compound I-1, 2-(4-(Adamantan-1-yl)phenoxy)-N,N-dimethylacetamide] was tested, and the inhibition at 10 µM was 51 to 75%.
`O=C(COc1ccc(C23CC4CC(CC(C4)C2)C3)cc1)NC1CC1` [Compound I-2, 2-(4-(Adamantan-1-yl)phenoxy)-N-cyclopropylacetamide] showed an inhibition at 10 µM of 76 to 100%.
With `Cc1cc(C23CC4CC(CC(C4)C2)C3)ccc1OCC(=O)N1CCN(C)CC1` [Compound I-5, 2-(4-(Adamantan-1-yl)-2-methylphenoxy)-1-(4-methylpiperazin-1-yl)ethanone] the inhibition at 10 µM was 76 to 100%.
With `Cc1cc(C23CC4CC(CC(C4)C2)C3)ccc1OCC(=O)NCCN(C)C` [Compound I-7, 2-(4-(Adamantan-1-yl)-2-methylphenoxy)-N-(2-(dimethylamino)ethyl)acetamide] the inhibition at 10 µM was 51 to 75%.
Work on `O=C(CCOc1ccc(C23CC4CC(CC(C4)C2)C3)cc1)N1CCOCC1` [Compound I-9, 3-(4-(Adamantan-1-yl)phenoxy)-1-morpholinopropan-1-one] yielded an inhibition at 10 µM of 76 to 100%.
For `CN(C)CCNC(=O)CCOc1ccc(C23CC4CC(CC(C4)C2)C3)cc1` [Compound I-10, 3-(4-(Adamantan-1-yl)phenoxy)-N-(2-(dimethylamino)ethyl)propanamide], the inhibition at 10 µM was 26 to 50%.
Compound `Cc1cc(C23CC4CC(CC(C4)C2)C3)ccc1OCCC(=O)N1CCN(C)CC1` [Compound I-11, 3-(4-(Adamantan-1-yl)-2-methylphenoxy)-1-(4-methylpiperazin-1-yl)propan-1-one] has an inhibition at 10 µM of 76 to 100%.
Work on `Cc1cc(C23CC4CC(CC(C4)C2)C3)ccc1OCCC(=O)N1CCOCC1` [Compound I-12, 3-(4-(Adamantan-1-yl)-2-methylphenoxy)-1-morpholinopropan-1-one] yielded an inhibition at 10 µM of 76 to 100%.
`Cc1cc(C23CC4CC(CC(C4)C2)C3)ccc1OCCC(=O)NCCN(C)C` [Compound I-13, 3-(4-(Adamantan-1-yl)-2-methylphenoxy)-N-(2-(dimethylamino)ethyl)propanamide] was tested, and the inhibition at 10 µM was 51 to 75%.
Work on `CN1CCN(C(=O)CCCOc2ccc(C34CC5CC(CC(C5)C3)C4)cc2)CC1` [Compound I-14, 4-(4-(Adamantan-1-yl)phenoxy)-1-(4-methylpiperazin-1-yl)butan-1-one] yielded an inhibition at 10 µM of 51 to 75%.
Work on `C[N+]1(C)CCN(C(=O)COc2ccc(C34CC5CC(CC(C5)C3)C4)cc2)CC1` [Compound I-15, 4-(2-(4-(Adamantan-1-yl)phenoxy)acetyl)-1,1-dimethylpiperazine-1-ium iodide] yielded an inhibition at 10 µM of 26 to 50%.
`Cc1cc(C23CC4CC(CC(C4)C2)C3)ccc1OCC(=O)NCC[N+](C)(C)C` [Compound I-17, 2-(2-(4-(Adamantan-1-yl)-2-methylphenoxy)acetamido)-N,N,N-trimethylethanaminium iodide] was tested, and the inhibition at 10 µM was 26 to 50%.
With `C[N+]1(C)CCN(C(=O)CCOc2ccc(C34CC5CC(CC(C5)C3)C4)cc2)CC1` [Compound I-18, 4-(3-(4-(Adamantan-1-yl)phenoxy)propanoyl)-1,1-dimethylpiperazin-1-ium iodide] the inhibition at 10 µM was 26 to 50%.
Work on `Cc1cc(C23CC4CC(CC(C4)C2)C3)ccc1OCCC(=O)N1CC[N+](C)(C)CC1` [Compound I-20, 4-(3-(4-(Adamantan-1-yl)-2-methylphenoxy)propanoyl)-1,1-dimethylpiperazin-1-ium iodide] yielded an inhibition at 10 µM of 76 to 100%.
`Cc1cc(C23CC4CC(CC(C4)C2)C3)ccc1OCCC(=O)NCC[N+](C)(C)C` [Compound I-21, 2-(3-(4-(Adamantan-1-yl)-2-methylphenoxy)propanamido)-N,N,N-trimethylethanaminium iodide] gave an inhibition at 10 µM of 26 to 50%.
Work on `CN1CCN(C(=O)COc2ccc(C34CC5CC(CC(C5)C3)C4)cc2F)CC1` [Compound I-25, 2-(4-(Adamantan-1-yl)-2-fluorophenoxy)-1-(4-methylpiperazin-1-yl)ethanone] yielded an inhibition at 10 µM of 51 to 75%.
Work on `O=C(COc1ccc(C23CC4CC(CC(C4)C2)C3)cc1)NCc1ccco1` [Compound I-26, 2-(4-(Adamantan-1-yl)phenoxy)-N-(furan-2-ylmethyl)acetamide] yielded an inhibition at 10 µM of 76 to 100%.
Work on `O=C(COc1ccc(C23CC4CC(CC(C4)C2)C3)cc1)N1CCN(Cc2ccc(C(F)(F)F)cc2)CC1` [Compound I-27, 2-(4-(Adamantan-1-yl)phenoxy)-1-(4-(4-(trifluoromethyl)benzyl)piperazin-1-yl)ethanone] yielded an inhibition at 10 µM of 76 to 100%.
`CC(C)N1CCN(C(=O)COc2ccc(C34CC5CC(CC(C5)C3)C4)cc2)CC1` [Compound I-28, 2-(4-(Adamantan-1-yl)phenoxy)-1-(4-isopropylpiperazin-1-yl)ethanone] was tested, and the inhibition at 10 µM was 51 to 75%.
With `CC(C)(C)OC(=O)N1CCN(C(=O)COc2ccc(C34CC5CC(CC(C5)C3)C4)cc2)CC1` [Compound I-29, tert-Butyl 4-(2-(4-(adamantan-1-yl)phenoxy)acetyl)piperazine-1-carboxylate] the inhibition at 10 µM was 51 to 75%.
In the case of `O=C(COc1ccc(C23CC4CC(CC(C4)C2)C3)cc1)N1CCNCC1` [Compound I-30, 2-(4-(Adamantan-1-yl)phenoxy)-1-(piperazin-1-yl)ethanone], the inhibition at 10 µM was 76 to 100%.
With `C[C@H]1CN(C(=O)OC(C)(C)C)CCN1C(=O)COc1ccc(C23CC4CC(CC(C4)C2)C3)cc1` [Compound I-31, (S)-tert-Butyl 4-(2-(4-(adamantan-1-yl)phenoxy)acetyl)-3-methylpiperazine-1-carboxylate] the inhibition at 10 µM was 76 to 100%.
`C[C@H]1CNCCN1C(=O)COc1ccc(C23CC4CC(CC(C4)C2)C3)cc1` [Compound I-32, 2-(4-(Adamantan-1-yl)phenoxy)-1-((S)-2-methylpiperazin-1-yl)ethanone] was tested, and the inhibition at 10 µM was 76 to 100%.
With `C[C@@H]1CN(C(=O)OC(C)(C)C)CCN1C(=O)COc1ccc(C23CC4CC(CC(C4)C2)C3)cc1` [Compound I-33, (R)-tert-Butyl 4-(2-(4-(Adamantan-1-yl)phenoxy)acetyl)-3-methylpiperazine-1-carboxylate] the inhibition at 10 µM was 76 to 100%.
Compound `C[C@@H]1CNCCN1C(=O)COc1ccc(C23CC4CC(CC(C4)C2)C3)cc1` [Compound I-34, 2-(4-(Adamantan-1-yl)phenoxy)-1-((R)-2-methylpiperazin-1-yl)ethanone] has an inhibition at 10 µM of 51 to 75%.
Work on `O=C(COc1ccc(C23CC4CC(CC(C4)C2)C3)cc1)N1CCN(CCO)CC1` [Compound I-35, 2-(4-(Adamantan-1-yl)phenoxy)-1-(4-(2-hydroxyethyl)piperazin-1-yl)ethanone] yielded an inhibition at 10 µM of 26 to 50%.
Compound `C#CCN1CCN(C(=O)COc2ccc(C34CC5CC(CC(C5)C3)C4)cc2)CC1` [Compound I-36, 2-(4-(Adamantan-1-yl)phenoxy)-1-(4-(prop-2-yn-1-yl)piperazin-1-yl)ethanone] has an inhibition at 10 µM of 51 to 75%.
`CN1CCN(c2ccc(NC(=O)COc3ccc(C45CC6CC(CC(C6)C4)C5)cc3)cc2)CC1` [Compound I-37, 2-(4-(Adamantan-1-yl)phenoxy)-N-(4-(4-methylpiperazin-1-yl)phenyl)acetamide] was tested, and the inhibition at 10 µM was 1 to 25%.
`O=C(COc1ccc(C23CC4CC(CC(C4)C2)C3)cc1)Nc1ccc(N2CCS(=O)(=O)CC2)cc1` [Compound I-38, 2-(4-(Adamantan-1-yl)phenoxy)-N-(4-(1,1-dioxidothiomorpholino)phenyl)acetamide] was tested, and the inhibition at 10 µM was 51 to 75%.
Compound `O=C(COc1ccc(C23CC4CC(CC(C4)C2)C3)cc1)N1CCn2c(nnc2C(F)(F)F)C1` [Compound I-39, 2-(4-(Adamantan-1-yl)phenoxy)-1-(3-(trifluoromethyl)-5,6-dihydro-[1,2,4]triazolo[4,3-a]pyrazin-7(8H)-yl)ethanone] has an inhibition at 10 µM of 26 to 50%.
`O=C(COc1ccc(C23CC4CC(CC(C4)C2)C3)cc1)NC12CC3CC(CC(C3)C1)C2` [Compound I-40, N-(adamantan-1-yl)-2-(4-(adamantan-1-yl)phenoxy)acetamide] was tested, and the inhibition at 10 µM was 1 to 25%.
`O=C(COc1ccc(C23CC4CC(CC(C4)C2)C3)cc1)NC12CC3CC(CC(O)(C3)C1)C2` [Compound I-41, 2-(4-(Adamantan-1-yl)phenoxy)-N-(3-hydroxyadamantan-1-yl)acetamide] was tested, and the inhibition at 10 µM was 76 to 100%.
`CN1CCN(C(=O)COc2ccc(C34CC5CC(CC(C5)C3)C4)cc2Cl)CC1` [Compound I-42, 2-(4-(Adamantan-1-yl)-2-chlorophenoxy)-1-(4-methylpiperazin-1-yl)ethanone] gave an inhibition at 10 µM of 51 to 75%.
